Patent US20250032474A1, “COMBINATION OF 8-CHLORO-N-(4-(TRIFLUOROMETHOXY)PHENYL)QUINOLIN-2-AMINE AND ITS DERIVATIVES WITH A S1P RECEPTOR MODULATOR” (ABIVAX, priority 0001, published 2025)

Assays:
[1] = tested on: cytokines (TNFα, IL-6, IFNg, and IL17) in blood; experiment: T cell transfer adoptive model of colitis, cytokine levels in blood (V-PLEX proinflammatory panel); type: in vivo, C57BL/6NRj-Rag2^tm1Ciphe/Rj mice; settings: day 55; oral daily; ABX464 100 mg/kg, etrasimod 3 mg/kg, ozanimod 1.5 mg/kg, alone or combined
Experimental: (§1) 8-week-old male C57BL/6 mice and 6-week-old male C57BL/6NRj-Rag2^tm1Ciphe/Rj mice were purchased from Janvier Labs and housed in accordance with French and European regulations. The colony is maintained at 21±1° C., 50±5% humidity and under an alternating 12/12-hours light/dark cycle (light at 6:00 AM). Standard food and water were given ad libitum. Animals were allowed to acclimate to the animal facility at least 10 days prior to conducting the study.
Spleens were dissected from C57BL/6 male donor mice and placed in a PBS+2% FBS buffer. Single-cell suspension was generated with Gentle Macs Dissociator followed by mashing cells through 40-μm nylon mesh strainers. Cells were pelleted and suspended in ACK lysis buffer for 5 minutes at RT (room temperature) followed by the addition of cold PBS+2% FBS buffer. CD4+ T cells were enriched by negative selection using a CD4+ T-cell isolation kit (Miltenyi) and LS magnetic columns. The flow through was collected, and cells were centrifuged and resuspended in PBS+2% FBS buffer. Antibodies (CD45RB-PE; CD4 FITC) were added and incubated on ice for 30 minutes protected from light. Cells were washed with buffer, centrifuged, resuspended and sorted using BD FACSAria™ Fusion Flow Cytometer. CD4+CD45high and CD4+CD45low cells were sorted, centrifuged and resuspended in sterile PBS. A total of 5×10^5 cells CD4+CD45high or CD4+CD45low were intraperitoneally injected to 6-week-old male C57BL/6NRj-Rag2^tm1Ciphe/Rj mice. The group “high” (injected with CD4+CD45high) represents the […] and the group “low” (injected with CD4+CD45low) represents the […].
Rag2^tm1Ciphe/Rj mice injected with CD4+CD45high or CD4+CD45low (controls) were orally dosed daily (10 ml/kg) beginning on the day of the transfer (1 h before the cell transfer at Day 0) until day 55 with vehicle (0.5% methylcellulose) and Rag2^tm1Ciphe/Rj mice injected with CD4+CD45high were orally dosed daily with one of the following 8-Chloro-N-(4-(trifluoromethoxy)phenyl)quinolin-2-amine (ABX464) (100 mg/kg), Etrasimod (3 mg/kg), Ozanimod (1.5 mg/kg), ABX464+Etrasimod (100 mg/kg and 3 mg/kg) or ABX464+Ozanimod (100 mg/kg and 1.5 mg/kg). All mice were weighed daily.
At day 55, mice were anesthetized with isoflurane. Blood was collected at Tmax and mice were euthanized to harvest tissues. Cytokines concentrations plasma were determined using V-PLEX proinflammatory Panel mouse kit (Meso Scale Diagnostics).
Statistical analysis was performed on mean+/−standard deviation by one way ANOVA followed by Kruskal-Wallis's multiple comparisons test. Asterisk indicates the significance of the differences: *P<0.05, **P<0.01, ***P<0.001, ****P<0.0001.
In addition, a Welch ANOVA was performed on log transformed data for each cytokine, based on the above results.
A synergy was assessed by comparing each combination group effect versus vehicle to the sum of the corresponding compound alone groups' effects versus vehicle (Bonferroni-Holm's adjustment for multiplicity).
The following tables give the estimation and 95% confidence interval (95% CI) of the difference between Combination effect and Sum of compounds alone effects for each cytokine.

[2] = tested on: T cell transfer adoptive model of colitis; experiment: T cell transfer adoptive model of colitis, body weight; type: in vivo, C57BL/6NRj-Rag2^tm1Ciphe/Rj mice; settings: day 55; oral daily; ABX464 100 mg/kg, etrasimod 3 mg/kg, ozanimod 1.5 mg/kg, alone or combined
Experimental: as §1
Spleens were dissected from C57BL/6 male donor mice and placed in a PBS+2% FBS buffer. Single-cell suspension was generated with Gentle Macs Dissociator followed by mashing cells through 40-μm nylon mesh strainers. Cells were pelleted and suspended in ACK lysis buffer for 5 minutes at RT (room temperature) followed by the addition of cold PBS+2% FBS buffer. CD4+ T cells were enriched by negative selection using a CD4+ T-cell isolation kit (Miltenyi) and LS magnetic columns. The flow through was collected, and cells were centrifuged and resuspended in PBS+2% FBS buffer. Antibodies (CD45RB-PE; CD4 FITC) were added and incubated on ice for 30 minutes protected from light. Cells were washed with buffer, centrifuged, resuspended and sorted using BD FACSAria™ Fusion Flow Cytometer. […]
Weight was monitored over the period of the study (55 days), and the effect on body weight over the time period is shown in FIGS. 1A-1B. […]

[3] = tested on: peripheral blood lymphocytes; settings: oral administration; cited from earlier work
[4] = tested on: chronic plaque psoriasis; relapsing-remitting multiple sclerosis; settings: patients with moderate to severe chronic plaque psoriasis and patients with relapsing-remitting multiple sclerosis; cited from earlier work
active SPMS = settings: cited from earlier work

FC(F)(F)Oc1ccc(Nc2ccc3cccc(Cl)c3n2)cc1 [ABX464, 8-Chloro-N-(4-(trifluoromethoxy)phenyl)quinolin-2-amine]
plasma level of IFNg [1]: did not reduce
plasma level of IL17 [1]: reduced
plasma level of IL-6 [1]: did not reduce
plasma level of TNFα [1]: reduced
body weight [2]: weight gain

O=C(O)C[C@H]1CCc2c1[nH]c1ccc(OCc3ccc(C4CCCC4)c(C(F)(F)F)c3)cc21 [Etrasimod]
plasma level of IFNg [1]: reduced
plasma level of IL17 [1]: did not reduce
plasma level of IL-6 [1]: did not reduce
plasma level of TNFα [1]: reduced
body weight [2]: protection from weight loss

CC(C)Oc1ccc(-c2nc(-c3cccc4c3CC[C@@H]4NCCO)no2)cc1C#N [Ozanimod]
plasma level of IFNg [1]: reduced
plasma level of IL17 [1]: did not reduce
plasma level of IL-6 [1]: did not reduce
plasma level of TNFα [1]: reduced

CCC/N=C1\S/C(=C\c2ccc(OC[C@H](O)CO)c(Cl)c2)C(=O)N1c1ccccc1C [Ponesimod, (R)-5-[3-chloro-4-(2,3-dihydroxy-propoxy)-benz[Z]ylidene]-2-([Z]-propylimino)-3-o-tolyl-thiazolidin-4-one]
number of peripheral blood lymphocytes [3]: consistent, sustained, and dose-dependent reduction
clinical benefit in phase II/phase III trials [4]: clinical benefit

CCc1cc(/C(C)=N/OCc2ccc(C3CCCCC3)c(C(F)(F)F)c2)ccc1CN1CC(C(=O)O)C1 [Siponimod, 1-(4-[1-[(E)-4-Cyclohexyl-3-trifluoromethyl-benzyloxyimino]-ethyl]-2-ethyl-benzyl)-azetidine-3-carboxylic acid]
risk of disability and MS relapses (active SPMS): decreases
